Test [1] has as its target Carbonic anhydrase 1 (Homo sapiens, UniProt P00915). The test is described as follows: Inhibition of human carbonic anhydrase 1 incubated for 15 mins by stopped flow CO2 hydrase assay.
In test [2] the target is Carbonic anhydrase 9 (Homo sapiens, UniProt Q16790). The test is described as follows: Inhibition of human carbonic anhydrase 9 incubated for 15 mins by stopped flow CO2 hydrase assay.
The target of test [3] is Carbonic anhydrase 2 (Homo sapiens, UniProt P00918). Briefly: Inhibition of human carbonic anhydrase 2 incubated for 15 mins by stopped flow CO2 hydrase assay.
The subject of test [4] is MG-63. Briefly: Cytotoxicity in human MG63 cells assessed as reduction in cell viability at 25 uM incubated for 72 hrs by acid phosphatase assay. The format is functional.
Test [5] relates to HOS. The test is described as follows: Induction of apoptosis in human HOS cells assessed as increase in caspase-7 activation at 25 uM incubated for 72 hrs by Caspase-GloR 3/7 assay. The format is functional, cell-based.
Test [6] relates to HOS. Briefly: Cytotoxicity in human HOS cells assessed as reduction in cell viability at 25 uM incubated for 72 hrs by acid phosphatase assay. In kind it is functional.
The subject of test [7] is HOS. Briefly: Cytotoxicity in human HOS cells assessed as reduction in cell viability at 12.5 to 100 uM incubated for 72 hrs by acid phosphatase assay. The format is functional, cell-based.
Test [8] deals with HOS. The test is described as follows: Antiproliferative activity against human HOS cells assessed as reduction in cell viability incubated for 72 hrs by erythrosine B dye vital staining assay. The format is functional, cell-based.
For test [9], the system named is MG-63. The test is described as follows: Induction of apoptosis in human MG63 cells assessed as increase in caspase-3 activation at 25 uM incubated for 72 hrs by Caspase-GloR 3/7 assay. The format is functional, cell-based.
In test [10] the test system is MG-63. The test is described as follows: Induction of apoptosis in human MG63 cells assessed as increase in caspase-7 activation at 25 uM incubated for 72 hrs by Caspase-GloR 3/7 assay. The format is functional, cell-based.
Test [11] relates to HOS. Briefly: Induction of apoptosis in human HOS cells assessed as increase in caspase-3 activation at 25 uM incubated for 72 hrs by Caspase-GloR 3/7 assay. The format is functional, cell-based.
Test [12] deals with MG-63. Briefly: Antiproliferative activity against human MG63 cells assessed as reduction in cell viability incubated for 72 hrs by erythrosine B dye vital staining assay. In kind it is functional, cell-based. As to conditions: MG-63, 72 h.
Test [13] concerns MG-63. Briefly: Cytotoxicity in human MG63 cells assessed as reduction in cell viability at 12.5 to 100 uM incubated for 72 hrs by acid phosphatase assay. In kind it is functional, cell-based.
The test system of test [14] is HOS. The test is described as follows: Induction of apoptosis in human HOS cells assessed as increase in caspase-7 activation at 50 uM incubated for 72 hrs by Caspase-GloR 3/7 assay. In kind it is functional, cell-based.
The test system of test [15] is HOS. The test is described as follows: Cytotoxicity in human HOS cells assessed as reduction in cell viability at 50 uM incubated for 72 hrs by acid phosphatase assay. In kind it is functional.
Test [16] concerns MG-63. Briefly: Induction of apoptosis in human MG63 cells assessed as increase in caspase-3 activation at 50 uM incubated for 72 hrs by Caspase-GloR 3/7 assay. In kind it is functional, cell-based.
For test [17], the system named is HOS. Briefly: Induction of apoptosis in human HOS cells assessed as increase in caspase-3 activation at 50 uM incubated for 72 hrs by Caspase-GloR 3/7 assay. In kind it is functional, cell-based.
Test [18] relates to MG-63. The test is described as follows: Cytotoxicity in human MG63 cells assessed as reduction in cell viability at 50 uM incubated for 72 hrs by acid phosphatase assay. In kind it is functional.
Test [19] concerns MG-63. Briefly: Induction of apoptosis in human MG63 cells assessed as increase in caspase-7 activation at 50 uM incubated for 72 hrs by Caspase-GloR 3/7 assay. The format is functional, cell-based.

The record followed here is ChEMBL document CHEMBL4339231, “α,γ-Diketocarboxylic Acids and Their Esters Act as Carbonic Anhydrase IX and XII Selective Inhibitors” (ACS Med Chem Lett, 2019).

The source made the active and inactive calls. The rule behind the calls is not given here.

Chain of Carbonic anhydrase 1 (P00915 whole entry): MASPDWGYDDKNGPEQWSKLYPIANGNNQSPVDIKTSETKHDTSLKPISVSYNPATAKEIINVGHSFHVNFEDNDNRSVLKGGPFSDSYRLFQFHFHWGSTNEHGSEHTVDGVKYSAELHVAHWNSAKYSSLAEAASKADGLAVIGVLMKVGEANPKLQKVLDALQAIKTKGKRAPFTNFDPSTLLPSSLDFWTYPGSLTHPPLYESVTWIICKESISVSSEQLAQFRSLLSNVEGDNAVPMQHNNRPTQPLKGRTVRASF

Broadly, the Ki is the dissociation constant of the complex between target and ligand, obtained from inhibition or displacement. A higher Ki goes with a looser hold on the target. Take `O=C(/C=C(\O)C(=O)O)/C=C/c1ccc(NC(=O)c2ccccc2)cc1`: the Ki in test [1] was more than 10 µM; in test [2], 0.0125 µM; in [3] it was 5.03 µM.

In the case of `O=C(/C=C(\O)C(=O)O)/C=C/c1ccc(NC(=O)c2cccc3ccccc23)cc1`, the Ki in [1] was more than 10 µM; in test [2], 0.0128 µM; in test [3] it was 2.58 µM.

Broadly, the IC50 is the concentration needed to halve the response being measured. With `CCOC(=O)/C(O)=C/C(=O)/C=C/c1ccc(NC(=O)c2cccc3ccccc23)cc1`, the Ki is more than 10 µM in test [1], 0.0379 µM in [2] and 8.65 µM in [3]. The Activity in [4] was 16.4%; in test [6] it was 19.7%; in [7], “Dose-dependent effect”; in test [13], “Dose-dependent effect”. In addition, the outcome in [5], in test [9], in test [10] and in [11] was inactive. In addition, the values for the IC50 in [8] and in test [12] were 15.6 µM and 14.7 µM, respectively.

As for `CCOC(=O)/C(O)=C/C(=O)/C=C/c1ccc(NC(=O)c2ccc3ccccc3c2)cc1`, the Ki in [1] worked out at 6.18 µM; in test [2], 0.0126 µM; in test [3], 9.44 µM. Further, the outcome in test [14], in test [16], in test [17] and in test [19] was inactive. For the same compound, the Activity was 50% in [15], “Dose-dependent effect” in test [7], 50% in [18] and “Dose-dependent effect” in test [13]. In addition, the IC50 in test [8] turned out to be 19.2 µM; in [12], 45.8 µM.

Regarding `CCOC(=O)/C(O)=C/C(=O)/C=C/c1ccc(NC(=O)c2ccccc2)cc1`, the values for the Ki in [1], in test [2] and in test [3] were 7.33 µM, 0.0902 µM and more than 10 µM, respectively.

Consider `O=C(/C=C(\O)C(=O)O)/C=C/c1ccc(NC(=O)c2ccc3ccccc3c2)cc1`, for which the Ki in [1] turned out to be 8.98 µM; in [2] it was 0.0113 µM; in test [3] it was 2.08 µM. For the same compound, the result in test [7] and in [13] was inactive.
